For the experiment, the system named is swine embryos. Kind of experiment: Progressive development in vitro of swine embryos after cryopreservation by vitrification under the influence of microfilament stabilizer cytochalasin-b. It is filed as cell-based. The settings on record: for % dev (progressive development in vitro after vitrification) / dev (number of embryos developed in vitro after vitrification): + cytochalasin-b. The method, then:
Cyto-b is added to the medium for MF depolymerization. Studies were carried out which documented microfilament (MF) alterations during swine embryo vitrification (Dobrinsky et al. 2000, supra).
Developmental appraisals of the centrifuged cryopreserved embryos were carried out both in vitro and in vivo. For in vitro studies, morulae/blastocysts were cultured for 72 hours post-treatment. After culture, embryos were morphologically evaluated for their developmental progression. […] Since all morulae would have to develop into
Embryos were vitrified as described by Dobrinsky and Johnson (supra) in vitrification medium [6.5M glycerol, 6% bovine serum albumin-V (BSA-V; Sigma Chemical Co., St. Louis, Mo.)]. Prior to cryopreservation, for microfilament depolymerization, embryos were incubated at 39° C. in 5% CO2 and air, 95% humidity for 30-45 min in culture medium containing 7.5 μg/ml cyto-b (Sigma Chemical co., supra; stock=5 mg/ml 95% food grade EtOH). Following incubation in cyto-b, embryos were removed from culture and washed 3 times in 2 ml handling medium with cyto-b for 5 min and then equilibrated in 1 ml handling medium containing 6% BSA-V and cyto-b for 5 min. Embryos were then washed in vitrification equilibration medium (25% glycerol v/v, 6% BSA-V) containing cyto-b, then placed in 20 μl of vitrification equilibration medium containing cyto-b in a 1.5-ml microcentrifuge tube. The tube was placed and counterbalanced in an Eppendorf 5415 microcentrifuge and centrifuged for 13 min at 13,000 rpm. During centrifugation, embryos were dehydrated and equilibrated with glycerol. Total time in vitrification equilibration medium was about 20 min, including the centrifugation time.

Marks after values point to notes of the source that are not given here.

Regarding `C=C1[C@@H](C)[C@H]2[C@H](Cc3ccccc3)NC(=O)[C@]23OC(=O)/C=C/[C@H](O)CCC[C@@H](C)C/C=C/[C@H]3[C@@H]1O` [Cytochalasin-b], the “% dev (progressive development in vitro after vitrification)” value (“% dev” for short) (HB1 = hatched blastocysts <400 μm diameter) was 90^c;z %, the “% dev” value (HB2 = hatched blastocysts >400 μm diameter) is reported as 41%, the “% dev” value (MB = morulae/early blastocysts) is given as 6^a % and the “% dev” value (XB = expanded blastocysts) is 60^b;z %. The “dev (number of embryos developed in vitro after vitrification)” value reads like this: (HB1 = hatched blastocysts <400 μm diameter, n 48) 43; (HB2 = hatched blastocysts >400 μm diameter, n 22) 9; (MB = morulae/early blastocysts, n 17) 1; (XB = expanded blastocysts, n 25) 15. In addition, the “survival and development of expanded and hatched blastocysts after vitrification” value (expanded and hatched blastocysts, versus control without cyto-b) was “significantly (p<0.05) improved survival and development”. Also, the “morula/early blastocyst viability after vitrification” value (morulae/early blastocysts, versus control without cyto-b) is “did not appear to improve”.

The values above are taken from US6503698B1, “Cryopreservation of swine embryos” (The United States of America as represented by the …, priority 2000, dated 2003).
